From ChEMBL document CHEMBL3259778, “Design and synthesis of novel indole-chalcone fibrates as lipid lowering agents” (2014)
Calls of active or inactive are those of the source. The rule behind the calls is not given here.

Key:
Rattus norvegicus [1] = assay: Antidyslipidemic activity in triton-induced hyperlipidemic Charles Foster rat assessed as plasma post heparin lipolytic activity at 100 mg/kg, po relative to control; type: functional
Rattus norvegicus [2] = assay: Antidyslipidemic activity in triton-induced hyperlipidemic Charles Foster rat assessed as reduction in triglyceride in plasma at 100 mg/kg, po relative to control; type: functional; parameters: scale not given: the % may be the effect or the level left
Rattus norvegicus [3] = assay: Antidyslipidemic activity in triton-induced hyperlipidemic Charles Foster rat assessed as reduction in total cholesterol in plasma at 100 mg/kg, po relative to control; type: functional; parameters: scale not given: the % may be the effect or the level left
Rattus norvegicus [4] = assay: Antidyslipidemic activity in triton-induced hyperlipidemic Charles Foster rat assessed as reduction in phospholipid in plasma at 100 mg/kg, po relative to control; type: functional; parameters: scale not given: the % may be the effect or the level left
Rattus norvegicus [5] = assay: Antidyslipidemic activity in triton-induced hyperlipidemic Charles Foster rat assessed as increase in total lipolytic activity of lipoprotein lipase at 100 mg/kg, po relative to control; type: functional, organism-based; parameters: dose 100 mg/kg
[6] = Antioxidant activity assessed as hydroxyl ion scavenging activity measured as MDA formation at 200 ug/ml after 90 mins by spectrophotometry relative to control; type: functional
[7] = Antioxidant activity assessed as suppression of microsomal lipid peroxidation measured as MDA formation at 200 ug/ml after 90 mins by spectrophotometry relative to control; type: functional
[8] = Antioxidant activity assessed as superoxide ion scavenging activity measured as formazone formation at 200 ug/ml after 90 mins by spectrophotometry relative to control; type: functional
Rattus norvegicus [9] = assay: Antidyslipidemic activity in triton-induced hyperlipidemic Charles Foster rat assessed as reduction in total cholesterol in plasma at 50 to 150 mg/kg, po relative to control; type: functional; parameters: scale not given: the % may be the effect or the level left; conditions: dose mg/kg 50-150
Rattus norvegicus [10] = assay: Antidyslipidemic activity in triton-induced hyperlipidemic Charles Foster rat assessed as reduction in phospholipid in plasma at 50 to 150 mg/kg, po relative to control; type: functional; parameters: scale not given: the % may be the effect or the level left; conditions: dose mg/kg 50-150
Rattus norvegicus [11] = assay: Antidyslipidemic activity in triton-induced hyperlipidemic po dosed Charles Foster rat assessed as increase in HDL in plasma relative to control; type: functional, organism-based
Rattus norvegicus [12] = assay: Antidyslipidemic activity in triton-induced hyperlipidemic po dosed Charles Foster rat assessed as reduction in LDL in plasma relative to control; type: functional, organism-based
Rattus norvegicus [13] = assay: Antidyslipidemic activity in triton-induced hyperlipidemic po dosed Charles Foster rat assessed as reduction in VLDL in plasma relative to control; type: functional, organism-based
Rattus norvegicus [14] = assay: Antidyslipidemic activity in triton-induced hyperlipidemic Charles Foster rat assessed as reduction in triglyceride in plasma at 50 to 150 mg/kg, po relative to control; type: functional; parameters: scale not given: the % may be the effect or the level left; conditions: dose mg/kg 50-150

| Structure (SMILES) | Activity (Rattus norvegicus [1]) [%] | Activity (Rattus norvegicus [2]) [%] | Activity (Rattus norvegicus [3]) [%] | Activity (Rattus norvegicus [4]) [%] | Activity (Rattus norvegicus [5]) | Activity [6] [%] | Activity [7] [%] | Activity [8] [%] | Activity (Rattus norvegicus [9]) [%] | Activity (Rattus norvegicus [10]) [%] | Activity (Rattus norvegicus [11]) | Activity (Rattus norvegicus [12]) | Activity (Rattus norvegicus [13]) | Activity (Rattus norvegicus [14]) [%] |
| --- | --- | --- | --- | --- | --- | --- | --- | --- | --- | --- | --- | --- | --- | --- |
| COC(=O)C(C)Oc1ccc(C(=O)/C=C/c2c[nH]c3ccccc23)cc1 (stereo unspecified) | 6 | 12 | 13 | 14 |  |  |  |  |  |  |  |  |  |  |
| CCOC(=O)C(C)Oc1ccc(C(=O)/C=C/c2c[nH]c3ccc(Cl)cc23)cc1 (stereo unspecified) | 7 | 13 | 11 | 15 |  |  |  |  |  |  |  |  |  |  |
| COC(=O)C(C)(C)Oc1ccc(C(=O)/C=C/c2c(C)[nH]c3ccccc23)cc1 | 6 | 10 | 10 | 12 |  |  |  |  |  |  |  |  |  |  |
| CCC(Oc1ccc(C(=O)/C=C/c2c[nH]c3ccccc23)cc1)C(=O)OC (stereo unspecified) | 3 | 9 | 8 | 8 |  |  |  |  |  |  |  |  |  |  |
| CCOC(=O)C(C)Oc1ccc(C(=O)/C=C/c2c[nH]c3ccccc23)cc1 (stereo unspecified) | 8 | 12 | 15 | 13 |  |  |  |  |  |  |  |  |  |  |
| CC(C)OC(=O)C(C)(C)Oc1ccc(C(=O)c2ccc(Cl)cc2)cc1 [FENOFIBRATE] | 19 | 33 | 32 | 30 | Active |  |  |  |  |  |  |  |  |  |
| COC(=O)CCCOc1ccc(C(=O)/C=C/c2c[nH]c3ccc(OC)cc23)cc1 | 7 | 14 | 13 | 11 |  |  |  |  |  |  |  |  |  |  |
| COC(=O)C(C)Oc1ccc(C(=O)/C=C/c2c[nH]c3ccc(Cl)cc23)cc1 (stereo unspecified) | 3 | 17 | 12 | 14 |  |  |  |  |  |  |  |  |  |  |
| CCOC(=O)CCCOc1ccc(C(=O)/C=C/c2c(C)[nH]c3ccccc23)cc1 | 7 | 14 | 13 | 16 |  |  |  |  |  |  |  |  |  |  |
| CCOC(=O)C(C)(C)Oc1ccc(C(=O)/C=C/c2c[nH]c3ccccc23)cc1 | 14 | 22 | 20 | 22 |  | 38 | 36 | 33 |  |  |  |  |  |  |
| COC(=O)CCCOc1ccc(C(=O)/C=C/c2c[nH]c3ccccc23)cc1 | 14 | 22 | 20 | 22 |  | 32 | 30 | 26 |  |  |  |  |  |  |
| COC(=O)CCCOc1ccc(C(=O)/C=C/c2c(C)[nH]c3ccccc23)cc1 | 9 | 16 | 15 | 18 |  |  |  |  |  |  |  |  |  |  |
| COC(=O)CCCOc1ccc(C(=O)/C=C/c2c[nH]c3ccc(Cl)cc23)cc1 | 4 | 10 | 10 | 11 |  |  |  |  |  |  |  |  |  |  |
| CCOC(=O)C(CC)Oc1ccc(C(=O)/C=C/c2c(C)[nH]c3ccccc23)cc1 (stereo unspecified) | 14 | 22 | 20 | 22 |  |  |  |  |  |  |  |  |  |  |
| CCOC(=O)C(C)(C)Oc1ccc(C(=O)/C=C/c2c(C)[nH]c3ccccc23)cc1 | 20 | 30 | 32 | 33 | Active | 41 | 40 | 36 | 24 | 26 | Active | Active | Active | 25 |
| OC[C@@H](O)[C@@H](O)[C@H](O)[C@H](O)CO |  |  |  |  |  | 53 |  |  |  |  |  |  |  |  |
| CCC(Oc1ccc(C(=O)/C=C/c2c(C)[nH]c3ccccc23)cc1)C(=O)OC (stereo unspecified) | 16 | 27 | 26 | 24 | Active | 29 | 28 | 27 | 14 | 17 | Active | Active | Active | 15 |
| Cc1c(C)c2c(c(C)c1O)CC[C@@](C)(CCC[C@H](C)CCC[C@H](C)CCCC(C)C)O2 |  |  |  |  |  |  | 46 |  |  |  |  |  |  |  |
| CCOC(=O)C(CC)Oc1ccc(C(=O)/C=C/c2c[nH]c3ccc(Cl)cc23)cc1 (stereo unspecified) | 13 | 16 | 18 | 16 |  |  |  |  |  |  |  |  |  |  |
| Oc1ncnc2[nH]ncc12 |  |  |  |  |  |  |  | 49 |  |  |  |  |  |  |
| CCOC(=O)C(C)Oc1ccc(C(=O)/C=C/c2c[nH]c3ccc(OC)cc23)cc1 (stereo unspecified) | 6 | 10 | 11 | 13 |  |  |  |  |  |  |  |  |  |  |
| CCOC(=O)CCCOc1ccc(C(=O)/C=C/c2c[nH]c3ccccc23)cc1 | 19 | 30 | 31 | 32 | Active | 37 | 35 | 31 | 22 | 20 | Active | Active | Active | 20 |
